What was measured:
OVCAR-3 = experiment: NCI-60 SRB growth assay; assay type: cell-based, human; settings: for GI50 / CC50: Homo sapiens; for GI50 / TGI: OVCAR-3; for CC50: OVCAR-3, read-out: LC50
COLO 205 = experiment: NCI-60 SRB growth assay; assay type: cell-based, human; settings: for TGI / GI50: COLO 205; for GI50 / CC50: Homo sapiens; for CC50: COLO 205, read-out: LC50
RXF 393 = experiment: NCI-60 SRB growth assay; assay type: cell-based, human; settings: for GI50: RXF 393; for TGI: RXF393
SK-OV-3 = experiment: NCI-60 SRB growth assay; assay type: cell-based, human; settings: for GI50 / CC50: Homo sapiens; for GI50 / TGI: SK-OV-3; for CC50: SK-OV-3, read-out: LC50
HS 578T = experiment: NCI-60 SRB growth assay; assay type: cell-based, human; settings: for TGI: HS578T; for GI50: Homo sapiens, Hs-578T
TK-10 = experiment: NCI-60 SRB growth assay; assay type: cell-based, human; settings: for GI50 / CC50: Homo sapiens; for GI50 / TGI: TK-10; for CC50: TK-10, read-out: LC50
OVCAR-4 = experiment: NCI-60 SRB growth assay; assay type: cell-based, human; settings: for GI50 / CC50: Homo sapiens; for GI50 / TGI: OVCAR-4; for CC50: OVCAR-4, read-out: LC50
SNB-19 = experiment: NCI-60 SRB growth assay; assay type: cell-based, human; settings: for CC50: SNB-19, read-out: LC50
MDA-MB-231 cells = experiment: Cell cycle analysis by flow cytometry; assay type: cell-based, human; settings: at 6 and 12 h; control 1–2%

CCCN1CCN(c2ccc3[nH]c(-c4ccc5[nH]c(-c6ccc(OCC)c(OCC)c6)nc5c4)nc3c2)CC1 [11a, 2-(2-(3,4-Diethoxyphenyl)-1H-benzo[d]imidazol-5-yl)-5-(4-propylpiperazin-1-yl)-1H-benzo[d]imidazole]
GI50 (OVCAR-3): 260 nM | CC50 (OVCAR-3): 1800 nM | TGI (OVCAR-3): 580 nM | TGI (COLO 205): 1290 nM | GI50 (COLO 205): 160 nM | CC50 (COLO 205): 5400 nM | GI50 (RXF 393; Homo sapiens): 260 nM | CC50 (RXF 393; Homo sapiens, RXF 393, read-out: LC50): 3600 nM | TGI (RXF 393): 900 nM | TGI (HL-60(TB)): 2700 nM | GI50 (SK-OV-3): 2100 nM | CC50 (SK-OV-3): 9900 nM | TGI (SK-OV-3): 10200 nM | TGI (HS 578T): >100 µM | GI50 (TK-10): 1220 nM | CC50 (TK-10): 2470 nM | TGI (TK-10): 4900 nM | GI50 (OVCAR-4): 690 nM | CC50 (OVCAR-4): 9500 nM | TGI (OVCAR-4): 2800 nM | CC50 (SNB-19; Homo sapiens): 5600 nM | TGI (SNB-19; SNB-19): 2180 nM

CCCCN1CCN(c2ccc3[nH]c(-c4ccc5[nH]c(-c6ccc(OCC)c(OCC)c6)nc5c4)nc3c2)CC1 [12a, 5-(4-Butylpiperazin-1-yl)-2-(2-(3,4-diethoxyphenyl)-1H-benzo[d]imidazol-5-yl)-1H-benzo[d]imidazole]
GI50 (OVCAR-3): 350 nM | CC50 (OVCAR-3): 2920 nM | TGI (OVCAR-3): 850 nM | TGI (COLO 205): 1520 nM | GI50 (COLO 205): 230 nM | CC50 (COLO 205): 6180 nM | GI50 (RXF 393; Homo sapiens): 1010 nM | TGI (RXF 393): 2350 nM | GI50 (SK-OV-3): 1330 nM | CC50 (SK-OV-3): 8010 nM | TGI (SK-OV-3): 3270 nM | TGI (HS 578T): 3.90 µM | GI50 (HS 578T): 1540 nM | GI50 (TK-10): 1660 nM | CC50 (TK-10): > 100000 nM | TGI (TK-10): 5170 nM | GI50 (OVCAR-4): 1480 nM | CC50 (OVCAR-4): 6950 nM | TGI (OVCAR-4): 3210 nM | GI50 (SNB-19; Homo sapiens, SNB-19): 1220 nM | CC50 (SNB-19; Homo sapiens): 5580 nM | TGI (SNB-19; SNB-19): 2610 nM

CCCCN1CCN(c2ccc3[nH]c(-c4ccc5[nH]c(-c6ccc(C(F)(F)F)cc6)nc5c4)nc3c2)CC1 [12b, 5-(5-(4-Butylpiperazin-1-yl)-1H-benzo[d]imidazol-2-yl)2(4(trifluoromethyl)phenyl)-1H-benzo[d]imidazole]
GI50 (OVCAR-3): 210 nM | CC50 (OVCAR-3): 730 nM | TGI (OVCAR-3): 400 nM | TGI (COLO 205): 3100 nM | GI50 (COLO 205): 1300 nM | GI50 (RXF 393; Homo sapiens): 470 nM | TGI (RXF 393): 1500 nM | TGI (HL-60(TB)): 2800 nM | TGI (HS 578T): 3.05 - μM | GI50 (HS 578T): 1260 nM | cells in the sub-G1 phase (MDA-MB-231 cells): 7.4% | GI50 (OVCAR-4): 600 nM | CC50 (OVCAR-4): 5200 nM | TGI (OVCAR-4): 1800 nM
